What was measured:
human NTSR-1 [1] = target: T1, human NTSR-1 (Homo sapiens (Human), UniProt P30989); assay: radioligand competitive binding assay using ^177Lu labeled C-1 as reference radioligand; conditions: for Relative Binding Affinity: Mean IC50 of C-1/Mean IC50 of the test compound; for IC50: Nonlin fit, single assay, HT-29 cells; for binding affinity compared to comparator compound C-1 or C-3: single radioligand competitive binding assay
Protocol: The binding affinities of test compounds were determined by a radioligand competitive binding assay using ^177Lu labeled C-1 as the reference radioligand.
Briefly, 100 μL HT-29 cells expressing human NTSR-1 at a density of 1˜2×10^6 cells/mL were mixed with binding buffer (RPMI-1640 medium supplemented with 0.25% bovine serum albumin) in each well of the 96-well filter plate (Millipore). Then the cells in each well were incubated with ^177Lu—C-1 (0.55 μCi/well) and the test compound under 37° C. for 1 hr (n=3). After incubation, unbound ^177Lu—C-1 and the test compound in each well was removed by filtration using a Multiscreen vacuum manifold (Millipore) and the cells were further rinsed with the binding buffer for 5 times. The cells from each well were then collected and radioactivity of the cells in each well was individually measured by y counter (2480 WIZARD2, PerkinElmer). The best-fit IC50 value of test compounds (inhibitory concentration when 50% of the bound ^177Lu—C-1 on cells were displaced) were calculated by fitting the data with nonlinear regression using GraphPad Prism 8.0.1.

[2] = test system: ASPC-1 tumor-bearing mice; assay: Biodistribution of radionuclide labeled complexes in ASPC-1 tumor-bearing mice; format: in vivo, BALB/c nude mice; conditions: ^177Lu-labeled complex
Protocol: The BALB/c nude mice (Charles River, Beijing) were utilized to establish the xenografted model for biodistribution study. All animal care and experimental procedure were performed by following the animal protocols approved by the ethics committee of China Institute of Radiation Protection.
Briefly, each mouse was inoculated with approximately 4×10^6 ASPC-1 cells (human pancreatic cancer cell line) or HT-29 cells (human colorectal adenocarcinoma cell line) expressing human NTSR-1 by subcutaneous injection at rear flank. After inoculation, the xenografted tumors were allowed to grow for ˜2-4 weeks till the tumor weight reached to about 0.05 to 0.50 g (0.20 g in average).
Biodistribution studies were performed by administrating the radionuclide labeled test compound at a dose of ˜30-50 μCi (100 μL in 0.9% NaCl, ˜1.11-1.85 MBq, with specific activity 30-250 μCi/nmol) to each animal through tail vein injection.
At different time points after the administration, the mice treated with each compound were euthanized. The tissues and organs of the animals in each group were collected, excised, weighed, and analyzed in a PerkinElmer 2480 WIZARD2γ counter, and the percent injected dose (% ID) and % ID/g of each organ or tissue were calculated.

human NTSR-1 [3] = target: T1, human NTSR-1; assay: FLIPR assay, inhibition of Neurotensin-induced intracellular-calcium mobilization; format: cell-based; conditions: for IC50 compared to comparator compound C-2: FLIPR assay; for IC50: HEK293 cells stably expressing human NTSR-1, mean, read-out: IC50 (nM) in FLIPR Assays
Protocol: Binding affinities of the representative compounds were also evaluated by FLIPR assay. Neurotensin receptor 1 belongs to the G-protein coupled receptors (GPCR) family. Activation of NTSR-1 by its ligand Neurotensin can induce intracellular-calcium mobilization. In FLIPR assay, the test compound and Neurotensin were incubated together with cells expressing NTSR-1 to measure inhibition of the intracellular-calcium mobilization by the test compound so that to evaluate its binding affinity.
Briefly, HEK293 cells stably expressing human NTSR-1 were plated in 384-well plates. 20 ul cell suspension at a concentration of 10×10^5 per ml was seeded in each well and incubated at 37° C. 5% CO2 overnight. Then the cells in each well were mixed with 20 ul probenecid assay buffer, 20 ul 8 uM Fluo-4 Direct™ Loading Buffer, 6×EC80 of Neurotensin and 10 μl of the diluted test compound, and incubated at 37° C. 5% CO2 for 50 min followed by incubation at room temperature for 10 min. The plate was then subject to FLIPR analysis.

[4] = read-out: LogIC50 Mean (converted)

T1 sequence (P30989 whole entry): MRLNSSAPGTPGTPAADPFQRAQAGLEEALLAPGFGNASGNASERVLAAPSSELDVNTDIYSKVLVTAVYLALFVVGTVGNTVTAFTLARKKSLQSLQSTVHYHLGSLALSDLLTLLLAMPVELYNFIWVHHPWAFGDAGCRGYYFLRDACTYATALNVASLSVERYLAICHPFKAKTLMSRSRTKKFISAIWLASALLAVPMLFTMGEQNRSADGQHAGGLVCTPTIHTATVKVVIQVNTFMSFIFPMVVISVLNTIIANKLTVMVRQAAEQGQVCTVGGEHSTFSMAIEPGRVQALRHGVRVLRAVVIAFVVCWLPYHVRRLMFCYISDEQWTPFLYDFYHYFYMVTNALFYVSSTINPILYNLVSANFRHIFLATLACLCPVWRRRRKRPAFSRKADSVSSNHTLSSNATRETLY

| SMILES | Relative Binding Affinity (human NTSR-1 [1]) | IC50 (human NTSR-1 [1]; read-out: IC50 (nM) Mean) | IC50 (human NTSR-1 [1]; [4]) | binding affinity compared to comparator compound C-1 or C-3 (human NTSR-1 [1]) | AUC (0-72 h) ratio Tumor/Blood [2] | AUC (0-72 h) ratio Tumor/Kidney [2] | AUC (0-72 h) ratio Tumor/Liver [2] | AUC (0-72 h) ratio Tumor/Lung [2] | IC50 compared to comparator compound C-2 (human NTSR-1 [3]) | IC50 (human NTSR-1 [3]) | binding affinity vs 3BP-227 (C-2) on removal of the tertiary amine motif in the linker (human NTSR-1 [1]) | improvement of potency vs SR142948 (C-3) (human NTSR-1 [1]; removal of the carbonyl group from the amide group) |
| --- | --- | --- | --- | --- | --- | --- | --- | --- | --- | --- | --- | --- |
| COc1cccc(OC)c1-c1cc(C(=O)NC2(C(=O)O)C3CC4CC(C3)CC2C4)nn1-c1ccc(N(C)CCCN(C)CCCN(C)C(=O)CN2CCN(CC(=O)O)CCN(CC(=O)O)CCN(CC(=O)O)CC2)cc1C(C)C (stereo not shown) [Compound I-1, 2,2′,2″-(10-(2-((3-((3-((4-(3-((2-carboxyadamantan-2-yl)carbamoyl)-5-(2,6-dimethoxyphenyl)-1H-pyrazol-1-yl)-3-isopropylphenyl)(methyl)amino)propyl)(methyl)amino)propyl)(methyl)amino)-2-oxoethyl)-1,4,7,10-tetraazacyclododecane-1,4,7-triyl)triacetic acid] | 82.6 | 0.465 nM | 0.465 nM | higher binding affinity | 36.5 | 5.6 | 12.8 | 39.3 | – | – | – | – |
| COc1cccc(OC)c1-c1cc(C(=O)NC2(C(=O)O)C3CC4CC(C3)CC2C4)nn1-c1ccc(NCCCN(C)CCCNC(=O)CN2CCN(CC(=O)O)CCN(CC(=O)O)CCN(CC(=O)O)CC2)cc1C(C)C (stereo not shown) [Compound I-2, 2,2′,2″-(10-(2-((3-((3-((4-(3-((−2-carboxyadamantan-2-yl)carbamoyl)-5-(2,6-dimethoxyphenyl)-1H-pyrazol-1-yl)-3-isopropylphenyl)amino)propyl)(methyl)amino)propy)amino)-2-oxoethyl)-1,4,7,10-tetraazacyclododecane-1,4,7-triyl)triacetic acid] | – | 0.559 nM | 0.558 nM | – | 12.5 | 10.4 | 10.6 | 39.4 | – | – | – | – |
| COc1cccc(OC)c1-c1cc(C(=O)NC2(C(=O)O)C3CC4CC(C3)CC2C4)nn1-c1ccc(NC(=O)CCCN(C)CCCN(C)C(=O)CN2CCN(CC(=O)O)CCN(CC(=O)O)CCN(CC(=O)O)CC2)cc1C(C)C (stereo not shown) [Compound I-5, 2,2′,2″-(10-(2-((3-((4-((4-(3-((2-carboxyadamantan-2-yl)carbamoyl)-5-(2,6-dimethoxyphenyl)-1H-pyrazol-1-yl)-3-isopropylphenyl)amino)-4-oxobutyl)(methy)amino)propyl)(methyl)amino)-2-oxoethyl)-1,4,7,10-tetraazacyclododecane-1,4,7-triyl)triacetic acid] | 146.4 | – | – | – | 10.0 | 14.2 | 16.7 | 48.3 | lower IC50 | 26.9 nM | – | – |
| COc1cccc(OC)c1-c1cc(C(=O)NC2(C(=O)O)C3CC4CC(C3)CC2C4)nn1-c1ccc(N(CCCN(C)C)C(=O)COCCOCCNC(=O)CN2CCN(CC(=O)O)CCN(CC(=O)O)CCN(CC(=O)O)CC2)cc1C(C)C (stereo not shown) [Compound I-6] | 3.1 | – | – | – | – | – | – | – | lower IC50 | 16.2 nM | – | – |
| COc1cccc(OC)c1-c1cc(C(=O)NC2(C(=O)O)C3CC4CC(C3)CC2C4)nn1-c1ccc(OCCCN(C)CCCN(C)C(=O)CN2CCN(CC(=O)O)CCN(CC(=O)O)CCN(CC(=O)O)CC2)cc1C(C)C (stereo not shown) [Compound I-7, 2,2′,2″-(10-(2-((3-((3-(4-(3-((2-carboxyadamantan-2-yl)carbamoyl)-5-(2,6-dimethoxyphenyl)-1H-pyrazol-1-yl)-3 isopropylphenoxy)propyl)(methyl)amino)propyl)(methyl)amino)-2-oxoethyl)-1,4,7,10-tetraazacyclododecane-1,4,7-triyl)triacetic acid] | 156.7 | – | – | – | 34.4 | 18.1 | 23.1 | 40.1 | lower IC50 | 11.7 nM | – | – |
| COc1cccc(OC)c1-c1cc(C(=O)NC2(C(=O)O)C3CC4CC(C3)CC2C4)nn1-c1ccc(NCCOCCOCCNC(=O)CN2CCN(CC(=O)O)CCN(CC(=O)O)CCN(CC(=O)O)CC2)cc1C(C)C (stereo not shown) [Compound I-10, 2,2′,2″-(10-(2-((2-(2-(2-((4-(3-((2-carboxyadamantan-2-yl)carbamoyl)-5-(2,6-dimethoxyphenyl)-1H-pyrazol-1-yl)-3-isopropylphenyl)amino)ethoxy)ethoxy)ethyl)amino)-2-oxoethyl)-1,4,7,10-tetraazacyclododecane-1,4,7-triyl)triacetic acid] | 28.3 | – | – | – | 58.0 | 15.4 | 41.1 | 31.3 | – | – | not compromise the binding affinity | – |
| COc1cccc(OC)c1-c1cc(C(=O)NC2(C(=O)O)C3CC4CC(C3)CC2C4)nn1-c1ccc(NCCCN(C)C)cc1C(C)C (stereo not shown) [II-1, 2-(5-(2,6-dimethoxyphenyl)-1-(4-((3-(dimethylamino)propyl)amino)-2-isopropylphenyl)-1H-pyrazole-3-carboxamido)adamantane-2-carboxylic acid] | 107.6 | – | – | – | – | – | – | – | – | – | – | ≥ 10 fold |
| COc1cccc(OC)c1-c1cc(C(=O)NC2(C(=O)O)C3CC4CC(C3)CC2C4)nn1-c1ccc(NCCCCN(C)C)cc1C(C)C (stereo not shown) [II-2, 2-(5-(2,6-dimethoxyphenyl)-1-(4-((4-(dimethylamino)butyl)amino)-2-isopropylphenyl)-1H-pyrazole-3-carboxamido)adamantane-2-carboxylic acid] | 293.0 | – | 0.158 nM | higher binding affinity | – | – | – | – | – | – | – | – |
| COc1cccc(OC)c1-c1cc(C(=O)NC2(C(=O)O)C3CC4CC(C3)CC2C4)nn1-c1ccc(NCCCCCN(C)C)cc1C(C)C (stereo not shown) [II-3, 2-(5-(2,6-dimethoxyphenyl)-1-(4-((5-(dimethylamino)pentyl)amino)-2-isopropylphenyl)-1H-pyrazole-3-carboxamido)adamantane-2-carboxylic acid] | 535.2 | – | – | – | – | – | – | – | – | – | – | – |
